Assay [1] deals with U87MG pLVX-IDH2 R140Q-neo cells. Briefly: U87MG pLVX-IDH2 R140Q-neo cell based assay, 2-HG in media by LC-MS at 48 hours. To be noted: Homo sapiens, U-87 MG. In short, it runs like this: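 U87MG cells stably expressing IDH2 R140Q were seeded overnight, then exposed to compound at 0.2% final DMSO at 37 °C, 5% CO2. 2-HG in the medium was quantified by LC-MS at 48 h. Growth inhibition was read by CellTiter-Glo luminescence at 72 h.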

Assay [2] deals with T1, IDH2 R172K (Homo sapiens, UniProt P48735, R172K).
T1 sequence (P48735 40-452 R172K): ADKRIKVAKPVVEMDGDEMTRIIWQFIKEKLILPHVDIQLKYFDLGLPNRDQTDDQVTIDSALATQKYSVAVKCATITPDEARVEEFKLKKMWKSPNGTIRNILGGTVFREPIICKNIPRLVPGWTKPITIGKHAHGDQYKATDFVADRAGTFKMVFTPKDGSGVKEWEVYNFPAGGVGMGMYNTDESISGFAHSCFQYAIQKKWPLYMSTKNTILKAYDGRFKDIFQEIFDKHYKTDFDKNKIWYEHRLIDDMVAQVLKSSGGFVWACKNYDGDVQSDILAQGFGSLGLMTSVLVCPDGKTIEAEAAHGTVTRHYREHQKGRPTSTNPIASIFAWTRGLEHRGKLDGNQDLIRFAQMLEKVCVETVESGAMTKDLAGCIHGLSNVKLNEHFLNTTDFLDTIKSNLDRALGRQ
Briefly: IDH2 R172K enzymatic assay (NADPH cofactor depletion, diaphorase/resazurin readout). It is filed as biochemical. To be noted: read-out: Enz R172K. In short, it runs like this: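 Compound was preincubated with IDH2 R172K for 1 h at room temperature, then the reaction was started with substrate mix containing 50 μM NADPH and 6.3 mM α-KG. After another 1 h at room temperature, stop mix with diaphorase and resazurin consumed the remaining NADPH, and resorufin fluorescence was read.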
(In general: Alamar Blue is a resazurin reagent that responds to reducing activity.)

Assay [3] deals with T2, IDH2 R140Q (Homo sapiens, UniProt P48735, R140Q).
T2 sequence (P48735 40-452 R140Q): T1 sequence (P48735 40-452 R172K) with R101Q, K133R
The assay can be described thus: IDH2 R140Q enzymatic assay (cofactor depletion, similar format). Format: biochemical. To be noted: read-out: Enz R140Q.

Residue numbers refer to the chain shown, from its start. pIC50: −log10 of the molar value.

`Fc1cc(Nc2nc(NC3COC3)nc(-c3ccccc3F)n2)ccn1` [Compound 628, 6-(2-Fluoro-phenyl)-N-(2-fluoro-pyridin-4-yl)-N′-oxetan-3-yl-[1,3,5]triazine-2,4-diamine]: the figures for the pIC50 in assay [1], in assay [2] and in assay [3] were above 7.00, 6.00 to 7.00 and above 7.00, respectively.
Consider `Fc1ccccc1-c1nc(Nc2cncc(C(F)(F)F)c2)nc(NC2COC2)n1` [Compound 629, 6-(2-Fluoro-phenyl)-N-oxetan-3-yl-N′-(5-trifluoromethyl-pyridin-3-yl)-[1,3,5]triazine-2,4-diamine], for which the pIC50 in assay [1], in assay [2] and in assay [3] was above 7.00 each time.
For `COc1ccc(F)c(-c2nc(Nc3ccnc(C(F)(F)F)c3)nc(NC(C)C)n2)c1` [Compound 630, 6-(2-Fluoro-5-methoxy-phenyl)-N-isopropyl-N′-(2-trifluoromethyl-pyridin-4-yl)-[1,3,5]triazine-2,4-diamine], the pIC50 in assay [1], in assay [2] and in assay [3] was above 7.00 in each case.
As for `COc1cccc(-c2nc(Nc3ccnc(C(F)(F)F)c3)nc(NC(C)C)n2)c1F` [Compound 631, 6-(2-Fluoro-3-methoxy-phenyl)-N-isopropyl-N′-(2-trifluoromethyl-pyridin-4-yl)-[1,3,5]triazine-2,4-diamine], the pIC50 in assay [1], in assay [2] and in assay [3] was above 7.00 in each case.
For the compound `CC(C)Nc1nc(Nc2ccnc(C(C)(C)O)c2)nc(-c2ccccc2F)n1` [Compound 632, 2-(4-((4-(2-fluorophenyl)-6-(isopropylamino)-1,3,5-triazin-2-yl)amino)pyridin-2-yl)propan-2-ol], the pIC50 in assay [1] is above 7.00; in assay [2] it was 6.00 to 7.00; in assay [3], 6.00 to 7.00.
Take `CC(C)Nc1nc(Nc2ccnc(C(F)(F)F)c2)nc(-c2cccc(O)c2F)n1` [Compound 633, 2-Fluoro-3-[4-isopropylamino-6-(2-trifluoromethyl-pyridin-4-ylamino)-[1,3,5]triazin-2-yl]-phenol]: the pIC50 was above 7.00 in assay [1], above 7.00 in assay [2] and 6.00 to 7.00 in assay [3].
Turning to `CC(C)Nc1nc(Nc2ccnc(C(F)(F)F)c2)nc(-c2cc(O)ccc2F)n1` [Compound 634, 4-Fluoro-3-[4-isopropylamino-6-(2-trifluoromethyl-pyridin-4-ylamino)-[1,3,5]triazin-2-yl]-phenol], the pIC50 in assay [1] is above 7.00; in assay [2] it was above 7.00; in assay [3], 6.00 to 7.00.
On to `COc1ccc(F)c(-c2nc(Nc3ccnc(C(F)(F)F)c3)nc(NC3COC3)n2)c1` [Compound 635, 6-(2-Fluoro-5-methoxy-phenyl)-N-oxetan-3-yl-N′-(2-trifluoromethyl-pyridin-4-yl)-[1,3,5]triazine-2,4-diamine], for which the pIC50 in assay [1], in assay [2] and in assay [3] was 6.00 to 7.00 each time.
On to `Fc1cc(Nc2nc(NC3[C@H]4COC[C@@H]34)nc(-c3ccccc3F)n2)ccn1` (stereo partly drawn) [Compound 636, 6-(2-Fluoro-phenyl)-N-(2-fluoro-pyridin-4-yl)-N′-(3-oxa-bicyclo[3.1.6]hex-6-yl)-[1,3,5]triazine-2,4-diamine], for which the pIC50 was above 7.00 in assay [1], 6.00 to 7.00 in assay [2] and above 7.00 in assay [3].
With `Fc1ccc(Nc2nc(NC3[C@H]4COC[C@@H]34)nc(-c3ccccc3F)n2)cn1` (stereo partly drawn) [Compound 637, 6-(2-Fluoro-phenyl)-N-(6-fluoro-pyridin-3-yl)-N′-(3-oxa-bicyclo[3.1.0]hex-6-yl)-[1,3,5]triazine-2,4-diamine], the pIC50 was above 7.00 in assay [1], 6.00 to 7.00 in assay [2] and 6.00 to 7.00 in assay [3].
As for `Fc1cncc(Nc2nc(NC3[C@H]4COC[C@@H]34)nc(-c3ccccc3F)n2)c1` (stereo partly drawn) [Compound 638, 6-(2-Fluoro-phenyl)-N-(5-fluoro-pyridin-3-yl)-N′-(3-oxa-bicyclo[3.1.0]hex-6-yl)-[1,3,5]triazine-2,4-diamine], the pIC50 in assay [1] was above 7.00; in assay [2] it was 6.00 to 7.00; in assay [3], 6.00 to 7.00.

For the origin of these results see patent publication US9512107B2, “Therapeutically active compositions and their methods of use” (Agios Pharmaceuticals, Inc., priority 2012, dated 2016).
